Assay results reported in patent publication US5607967A, “Treatment of alzheimer's disease with 5-(tetradecyloxy)-2-furan carboxylic acid” (Merck & Co., Inc., priority 1994, dated 1997).
Like-named read-outs stand apart in the source and are kept apart here.

Assays:
[1] = biological target: T1, GR/PPAR chimeric receptor (Mus musculus, UniProt P23204); test: Ligand dependent transcription assay, GR/PPAR chimeric receptor with MMTV-luciferase reporter; format: cell-based
T1 construct: COS cells, MMTV-luciferase
T1 sequence (P23204 1-468): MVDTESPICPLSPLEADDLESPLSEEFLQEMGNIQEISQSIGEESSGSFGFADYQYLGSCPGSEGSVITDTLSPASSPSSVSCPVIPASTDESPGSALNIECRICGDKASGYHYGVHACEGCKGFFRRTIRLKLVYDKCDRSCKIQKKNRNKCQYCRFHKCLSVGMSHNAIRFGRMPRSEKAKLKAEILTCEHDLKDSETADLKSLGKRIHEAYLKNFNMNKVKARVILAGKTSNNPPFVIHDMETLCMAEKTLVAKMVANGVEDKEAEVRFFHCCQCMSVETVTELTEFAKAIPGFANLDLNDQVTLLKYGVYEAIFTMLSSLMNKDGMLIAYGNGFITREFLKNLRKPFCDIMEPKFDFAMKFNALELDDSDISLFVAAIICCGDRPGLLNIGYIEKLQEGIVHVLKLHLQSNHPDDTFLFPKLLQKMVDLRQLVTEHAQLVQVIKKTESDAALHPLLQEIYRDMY
T1 sequence (P06537 1-792 partner): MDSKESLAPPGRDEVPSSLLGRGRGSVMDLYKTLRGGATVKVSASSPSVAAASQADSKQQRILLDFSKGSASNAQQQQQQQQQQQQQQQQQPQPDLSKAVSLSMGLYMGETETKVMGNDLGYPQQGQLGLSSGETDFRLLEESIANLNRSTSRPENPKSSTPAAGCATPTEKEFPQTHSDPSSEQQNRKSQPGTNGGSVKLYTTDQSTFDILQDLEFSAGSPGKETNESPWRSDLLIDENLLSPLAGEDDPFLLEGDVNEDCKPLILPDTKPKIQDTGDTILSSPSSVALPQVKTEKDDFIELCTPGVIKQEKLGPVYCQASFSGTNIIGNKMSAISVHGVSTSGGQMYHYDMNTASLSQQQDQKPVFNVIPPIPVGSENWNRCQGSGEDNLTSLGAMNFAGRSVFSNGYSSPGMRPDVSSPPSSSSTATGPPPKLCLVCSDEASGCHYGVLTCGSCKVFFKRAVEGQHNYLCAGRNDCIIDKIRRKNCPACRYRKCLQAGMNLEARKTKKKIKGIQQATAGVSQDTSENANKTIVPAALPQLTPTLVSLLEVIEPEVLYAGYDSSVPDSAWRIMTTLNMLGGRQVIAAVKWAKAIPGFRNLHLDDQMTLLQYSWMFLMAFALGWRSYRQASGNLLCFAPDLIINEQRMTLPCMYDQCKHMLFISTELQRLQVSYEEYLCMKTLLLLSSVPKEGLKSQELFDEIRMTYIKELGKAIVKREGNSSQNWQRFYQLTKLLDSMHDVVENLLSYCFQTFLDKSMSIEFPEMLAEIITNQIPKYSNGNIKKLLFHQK
Procedure: Similar hybrid receptors GR/NER, GR/NUC and GR/PPAR, in identical expression plasmid backgrounds were prepared essentially as described for the construction of the GR/mPPAR and GR/NUC chimeric receptors in Schmidt et al., "Identification of a new member of the steroid hormone receptor superfamily that is activated by a peroxisome proliferator and fatty acids," Mol. Endocrinol., 6(10):1634-41, 1992, and in Boie et al., "Enantioselective activation of the peroxisome proliferator-activated receptor", J. Biol. Chem. 268(8):5530-4, 1993.
Briefly, the amino terminal portion of the mouse glucocorticoid receptor (mGR), that includes the DNA binding domain was fused to the putative ligand binding domains of the nuclear receptor NER, hNUC-I (Schmidt et al., 1992), mPPAR (Issenmann and Green, 1990) to form the respective chimeric receptors GR/NER, GR/NUC and GR/PPAR. The GR/NER chimeric receptor was constructed as described for the GR/NUC and GR/PPAR hybrid receptors (Schmidt et al., 1992; Boie et al). The cDNA sequences coding for amino acids Arg^155 and Glu^156 of the NER receptor were converted to the Xho I restriction site, that was later used for the ligation to the GR cDNA sequences that coded for the DNA binding domain. Thus, converting amino acid residues Arg^155 and Glu^156 of NER receptor to amino acid residues Ser^155 and His^156.
The ligand transcription assay mediated by GR/PPAR in COS cells was performed as described in Example 4. The cells were treated with TOFA and Cerulenin at 0.1, 1, 10 and 100 μM.

[2] = test system: Muscarinic receptor agonist (Pilocarpine) induced catalepsy; test: Pilocarpine induced catalepsy (Bar method); format: in vivo, rat; details: TOFA 0.4 mg/kg S.C. pretreatment
Procedure: Catalepsy was determined by a modification of the Bar method (Undie and Friedman, 1988). A steel bar, 1.1 cm in diameter and 50 cm long, was suspended at a height of 10 cm above the working surface. Three sides of the bench around the bar were walled off with brown cardboard, and the linings on the bench surface were selected to be of the same color with the cardboard walls. The animal's hind limbs were freely placed on the bench, the fail laid out to the back, and the forelimbs placed over the bar. The length of time a rat stayed up on the bar was noted up to a preset cut-off point of 120 s. The time was counted off upon observing any of the following actions: (1) the animal came off, placing its two forepaws on the bench, (2) the animal climbed onto or over the bar with both hind limbs, (3) the animal initiated locomotion along or around the bar. Subsequently, time readings were translated into scores by awarding a score of 1 for each successfully completed 5 s on the bar. For each observation time, catalepsy scores were averaged for all the animals in a group to give the Mean Score of the group at that observation time. Further, the scores for each animal at all the observation times were added to give the total score for that animal. The mean of this last group of numbers was called the Mean Total Score of the group.
Catalepsy scores were analyzed by computer in accordance with the statistical procedures outlined by Winer, B. J.: Statistical principles in experimental design. McGraw-Hill, New York, pp. 10-428, 1971. Generally, for a given set of comparisons, observations were subjected to an appropriate analysis of variance followed by two-tailed Dunnett or Student's t-tests to detect differences between treatment groups.
Rats were pretreated with 0.4 mg/kg TOFA or with carrier (S.C.). Twenty-four hours later, the rats were challenged with 16 mg/kg Pilocarpine, an agonist of the muscarinic cholinergic receptor, and the duration of catalepsy was monitored as described in Example 10.

[3] = biological target: T1, GR/PPAR chimeric receptor; test: Ligand dependent transcription assay, GR/PPAR chimeric receptor with MMTV-luciferase reporter; format: cell-based; details: read-out: Fold of stimulation GR/PPAR
PC12 cells = test: Neurite differentiation of PC12 cells; format: cell-based; details: TOFA alone, without NGF
[4] = COS, read-out: Fold of stimulation GR/PPAR

Structure (SMILES): CCCCCCCCCCCCCCOc1ccc(C(=O)O)o1 [TOFA, 5-(tetradecyloxy)-2-furan carboxylic acid]
- Expression mediated by GR/PPAR [1]: stimulated expression
- fold induction at 0.1 µM [1, 4]: 1.04 ± 0.14
- fold induction at 1 µM [1, 4]: 2.38 ± 0.16
- fold induction at 10 µM [1, 4]: 4.43 ± 0.23
- fold induction at 100 µM [1, 4]: 4.1 ± 0.52
- fold induction at 10 µM ([1]; read-out: Fold of stimulation GR/PPAR): 4.08 ± 0.1
- Catalepsy Duration ([2]; 24 h later 16 mg/kg Pilocarpine): 84.1 ± 9.6 s
- Catalepsy Duration ([2]; no challenge): 0 s
- fold induction at 2 µM [3]: 2.89 ± 0.13
- fold induction at 20 µM [3]: 5.75 ± 0.14
- Neurite outgrowth (PC12 cells): did not induce neurite outgrowth
